These results are taken from US12473304B2, “Heterocyclic PAD4 inhibitors” (BRISTOL-MYERS SQUIBB COMPANY, priority 2020, dated 2025).

SMILES strings stand for the structures.

human PAD4 (hPAD4), sequence (Q9UM07 whole entry): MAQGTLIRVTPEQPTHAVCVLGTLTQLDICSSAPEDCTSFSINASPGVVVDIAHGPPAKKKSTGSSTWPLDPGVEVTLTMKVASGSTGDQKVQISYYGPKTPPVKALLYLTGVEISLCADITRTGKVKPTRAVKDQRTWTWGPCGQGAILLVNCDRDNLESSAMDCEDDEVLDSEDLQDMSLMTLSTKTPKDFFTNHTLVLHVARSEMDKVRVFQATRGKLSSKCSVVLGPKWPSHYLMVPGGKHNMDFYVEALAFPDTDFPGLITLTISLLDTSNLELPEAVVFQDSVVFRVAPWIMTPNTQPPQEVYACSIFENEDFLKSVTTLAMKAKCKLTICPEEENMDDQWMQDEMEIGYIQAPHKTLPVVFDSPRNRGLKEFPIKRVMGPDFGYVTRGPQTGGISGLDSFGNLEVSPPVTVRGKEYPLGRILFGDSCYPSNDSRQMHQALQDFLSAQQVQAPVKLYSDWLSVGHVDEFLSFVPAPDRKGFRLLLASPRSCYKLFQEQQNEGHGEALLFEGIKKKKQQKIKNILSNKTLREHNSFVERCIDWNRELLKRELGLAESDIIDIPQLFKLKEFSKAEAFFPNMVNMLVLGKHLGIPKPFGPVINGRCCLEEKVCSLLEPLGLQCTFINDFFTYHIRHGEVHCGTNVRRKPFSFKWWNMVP

In the assay the target is human PAD4 (hPAD4) (Homo sapiens (Human), UniProt Q9UM07). In words: RFMS Human PAD4 Functional Assay 1. As to conditions: RFMS assay 1; 5 nM hPAD4, 250 μM BAEE substrate, 50 μM calcium, 37° C. The class given is biochemical. The method in brief:
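Citrullination product read by RapidFire triple-quad MRM against a modified-citrulline internal standard, after TCA stop and 30 min phenyl glyoxal step at 37 °C. Reaction: 250 μM BAEE, 5 nM human PAD4, 90 min at 37 °C, pH 7.5 HEPES buffer with 50 μM calcium and 5 μM TPEN, following 30 min compound–enzyme preincubation (max 50 μM).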
Regarding `CO[C@H](C)C(=O)N1CCC(c2cc(F)cc3cc(-c4nn5cc(C(=O)N6CCC[C@@H](N)C6)ccc5c4C)n(CC4CC4)c23)CC1` [Example 497, (R)-1-(4-(2-(6-((R)-3-Aminopiperidine-1-carbonyl)-3-methylpyrazolo[1,5-a]pyridin-2-yl)-1-(cyclopropylmethyl)-5-fluoro-1H-indol-7-yl)piperidin-1-yl)-2-methoxypropan-1-one], the IC50 is 40 nM. As for `COc1cc(C(=O)N2CCC[C@@H](N)C2)cn2nc(-c3cc4cccc(C5CN(C(=O)C6CC(O)(C(F)(F)F)C6)C5)c4n3CC3CC3)c(C)c12` (mixture of isomers) [Example 515, (R)-(3-Aminopiperidin-1-yl)(2-(1-(cyclopropylmethyl)-7-(1-(3-hydroxy-3-(trifluoromethyl)cyclobutane-1-carbonyl)azetidin-3-yl)-1H-indol-2-yl)-4-methoxy-3-methylpyrazolo[1,5-a]pyridin-6-yl)methanone], the IC50 stood at 60 nM. To `Cc1c(-c2cc3ccnc(OCC4CNC(=O)C4)c3n2CC2CC2)nn2cc(C(=O)N3C[C@H](N)C[C@@H](F)C3)ccc12` (single isomer, unassigned; isomer 2) [Example 615] belongs 70 nM; to `Cc1c(-c2cc3ccc(C4CC4)nc3n2CC2CC2)nn2cc(C(=O)N3CC4CCC3[C@@H]4N)cc(F)c12` (stereo partly drawn) [Example 41, ((7R)-7-Amino-2-azabicyclo[2.2.1]heptan-2-yl)(2-(6-cyclopropyl-1-(cyclopropylmethyl)-1H-pyrrolo[2,3-b]pyridin-2-yl)-4-fluoro-3-methylpyrazolo[1,5-a]pyridin-6-yl)methanone], 85 nM. The figure for `CC(=O)N1CCC(c2cccc3cc(-c4nn5cc(C(=O)N6C[C@H](N)C[C@@H](F)C6)ccc5c4C)n(CC4CC4)c23)CC1` [Example 452, 1-(4-(2-(6-((3R,5R)-3-amino-5-fluoropiperidine-1-carbonyl)-3-methylpyrazolo[1,5-a]pyridin-2-yl)-1-(cyclopropylmethyl)-1H-indol-7-yl)piperidin-1-yl)ethan-1-one] is 30 nM; for `COCC(=O)N1CC(c2cccc3cc(-c4nn5cc(C(=O)N6C[C@H](N)C[C@@H](F)C6)cc(OC)c5c4C)n(CC4CC4)c23)C1` [Example 527, 1-(3-(2-(6-((3R,5R)-3-Amino-5-fluoropiperidine-1-carbonyl)-4-methoxy-3-methylpyrazolo[1,5-a]pyridin-2-yl)-1-(cyclopropylmethyl)-1H-indol-7-yl)azetidin-1-yl)-2-methoxyethan-1-one] it is 50 nM; for `Cc1c(-c2ccc3cc(-c4nn5cc(C(=O)N6C[C@H](N)C[C@@H](F)C6)ccc5c4C)n(CC4CC4)c3n2)cc(F)c2[nH]c(=O)ccc12` [Example 324, 6-(2-{6-[(3R,5R)-3-Amino-5-fluoropiperidine-1-carbonyl]-3-methylpyrazolo[1,5-a]pyridin-2-yl}-1-(cyclopropylmethyl)-1H-pyrrolo[2,3-b]pyridin-6-yl)-8-fluoro-5-methyl-1,2-dihydroquinolin-2-one] it is 110 nM.

With `Cc1c(-c2cc3ccc(N4CCC[C@@H](O)C4)nc3n2CC2CC2)nn2cc(C(=O)N3CC4CCC3[C@@H]4N)ccc12` (stereo partly drawn) [Example 78, ((7R)-7-Amino-2-azabicyclo[2.2.1]heptan-2-yl)(2-(1-(cyclopropylmethyl)-6-((R)-3-hydroxypiperidin-1-yl)-1H-pyrrolo[2,3-b]pyridin-2-yl)-3-methylpyrazolo[1,5-a]pyridin-6-yl)methanone], the IC50 was 143 nM.

With `COc1cc(C(=O)N2C[C@H](N)C[C@@H](F)C2)cn2nc(-c3cc4ccc(N5C[C@H](N)C[C@@H](F)C5)cc4n3CC3CC3)c(C)c12` [Example 34, ((3R,5R)-3-Amino-5-fluoropiperidin-1-yl)(2-(6-((3R,5R)-3-amino-5-fluoropiperidin-1-yl)-1-(cyclopropylmethyl)-1H-indol-2-yl)-4-methoxy-3-methylpyrazolo[1,5-a]pyridin-6-yl)methanone], the IC50 stood at 42 nM. The figure for `Cc1c(-c2cc3cccc(C4CCN(C(=O)[C@H]5CC[C@@H](O)CC5)CC4)c3n2CC2CC2)nn2cc(C(=O)N3C[C@H](N)C[C@@H](F)C3)cc(F)c12` [Example 416, ((3R,5R)-3-Amino-5-fluoropiperidin-1-yl)(2-(1-(cyclopropylmethyl)-7-(1-((1s,4s)-4-hydroxycyclohexane-1-carbonyl)piperidin-4-yl)-1H-indol-2-yl)-4-fluoro-3-methylpyrazolo[1,5-a]pyridin-6-yl)methanone] is 560 nM; for `COc1cc(C(=O)N2CCC[C@@H](N)C2)cn2nc(-c3cc4cccc(C5CN(C(=O)[C@@H](C)OC)C5)c4n3CC3CC3)c(C)c12` [Example 525, (R)-1-(3-(2-(6-((R)-3-Aminopiperidine-1-carbonyl)-4-methoxy-3-methylpyrazolo[1,5-a]pyridin-2-yl)-1-(cyclopropylmethyl)-1H-indol-7-yl)azetidin-1-yl)-2-methoxypropan-1-one] it is 90 nM; for `Cc1c(-c2cc3ccc(-c4ccc(OC(F)F)cc4)nc3n2CC2CC2)nn2cc(C(=O)N3CC4CCC3[C@@H]4N)cc(F)c12` (stereo partly drawn) [Example 47, ((7R)-7-Amino-2-azabicyclo[2.2.1]heptan-2-yl)(2-(1-(cyclopropylmethyl)-6-(4-(difluoromethoxy)phenyl)-1H-pyrrolo[2,3-b]pyridin-2-yl)-4-fluoro-3-methylpyrazolo[1,5-a]pyridin-6-yl)methanone] it is 1480 nM. To `COc1cc(C(=O)N2C[C@H](N)C[C@@H](F)C2)cn2nc(-c3cc4cccc(C5CCN(C(=O)[C@@H](C)OC)CC5)c4n3CC3CC3)c(C)c12` [Example 395, (R)-1-(4-(2-(6-((3R,5R)-3-Amino-5-fluoropiperidine-1-carbonyl)-4-methoxy-3-methylpyrazolo[1,5-a]pyridin-2-yl)-1-(cyclopropylmethyl)-1H-indol-7-yl)piperidin-1-yl)-2-methoxypropan-1-one] belongs 140 nM; to `Cc1c(-c2cc3cccc(C4CCN(C(=O)C5CC(O)C5)CC4)c3n2CC2CC2)nn2cc(C(=O)N3CC4CCC3[C@@H]4N)ccc12` (mixture of isomers) [Example 467, (4-(2-(6-((7R)-7-amino-2-azabicyclo[2.2.1]heptane-2-carbonyl)-3-methylpyrazolo[1,5-a]pyridin-2-yl)-1-(cyclopropylmethyl)-1H-indol-7-yl)piperidin-1-yl)(3-hydroxycyclobutyl)methanone], 20 nM; to `Cc1c(-c2cc3cccc(C4CCN(C(=O)COC(C)C)CC4)c3n2CC2CC2)nn2cc(C(=O)N3CCC[C@@H](N)C3)ccc12` [Example 432, (R)-1-(4-(2-(6-(3-aminopiperidine-1-carbonyl)-3-methylpyrazolo[1,5-a]pyridin-2-yl)-1-(cyclopropylmethyl)-1H-indol-7-yl)piperidin-1-yl)-2-isopropoxyethan-1-one], 200 nM. To `Cc1c(-c2cc3ccc(-c4cccc(-c5nn[nH]n5)c4)cc3n2CC2CC2)nn2cc(C(=O)N3C[C@H](N)C[C@@H](F)C3)ccc12` [Example 368, (3R,5R)-1-{2-[1-(Cyclopropylmethyl)-6-[3-(2H-1,2,3,4-tetrazol-5-yl)phenyl]-1H-indol-2-yl]-3-methylpyrazolo[1,5-a]pyridine-6-carbonyl}-5-fluoropiperidin-3-amine] belongs 2800 nM; to `Cc1c(-c2cc3cc(F)cc(C4CCN(C(=O)[C@H]5CC[C@@H](O)CC5)CC4)c3n2CC2CC2)nn2cc(C(=O)N3C[C@H](N)C[C@@H](F)C3)ccc12` [Example 486, ((3R,5R)-3-Amino-5-fluoropiperidin-1-yl)(2-(1-(cyclopropylmethyl)-5-fluoro-7-(1-((1s,4s)-4-hydroxycyclohexane-1-carbonyl)piperidin-4-yl)-1H-indol-2-yl)-3-methylpyrazolo[1,5-a]pyridin-6-yl)methanone], 70 nM.

Take `Cc1c(-c2cc3ccc(N4CCC(N(C)S(C)(=O)=O)CC4)cc3n2CC2CC2)nn2cc(C(=O)N3C[C@H](N)C[C@@H](F)C3)ccc12` [Example 354, N-[1-(2-{6-[(3R,5R)-3-Amino-5-fluoropiperidine-1-carbonyl]-3-methylpyrazolo[1,5-a]pyridin-2-yl}-1-(cyclopropylmethyl)-1H-indol-6-yl)piperidin-4-yl]-N-methylmethanesulfonamide]: the IC50 was determined as 150 nM. For `CO[C@H](C)C(=O)N1CCC(c2cccc3cc(-c4nn5cc(C(=O)N6CCC[C@@H](N)C6)cc(F)c5c4C)n(CC4CC4)c23)CC1` [Example 426, (R)-1-(4-(2-(6-((R)-3-Aminopiperidine-1-carbonyl)-4-fluoro-3-methylpyrazolo[1,5-a]pyridin-2-yl)-1-(cyclopropylmethyl)-1H-indol-7-yl)piperidin-1-yl)-2-methoxypropan-1-one], the IC50 came out at 50 nM. The figure for `Cc1c(-c2cc3ccc(N4CCC(N5CCCC5=O)CC4)nc3n2CC2CC2)nn2cc(C(=O)N3CCC[C@@H](N)C3)cc(F)c12` [Example 273, 1-[1-(2-{6-[(3R)-3-Aminopiperidine-1-carbonyl]-4-fluoro-3-methylpyrazolo[1,5-a]pyridin-2-yl}-1-(cyclopropylmethyl)-1H-pyrrolo[2,3-b]pyridin-6-yl)piperidin-4-yl]pyrrolidin-2-one] is 2420 nM. On to `Cc1c(-c2cc3ccc(-c4ccc5c(c4)C(=O)NC5)nc3n2CC2CC2)nn2cc(C(=O)N3CCC[C@@H](N)C3)cc(F)c12` [Example 285, 6-(2-{6-[(3R)-3-Aminopiperidine-1-carbonyl]-4-fluoro-3-methylpyrazolo[1,5-a]pyridin-2-yl}-1-(cyclopropylmethyl)-1H-pyrrolo[2,3-b]pyridin-6-yl)-2,3-dihydro-1H-isoindol-1-one], for which the IC50 worked out at 1270 nM.

As to `Cc1c(-c2cc3ccc(C(C)O)nc3n2CC2CC2)nn2cc(C(=O)N3CCC[C@@H](N)C3)ccc12` (mixture of isomers) [Example 385, 1-(2-{6-[(3R)-3-Aminopiperidine-1-carbonyl]-3-methylpyrazolo[1,5-a]pyridin-2-yl}-1-(cyclopropylmethyl)-1H-pyrrolo[2,3-b]pyridin-6-yl)ethan-1-ol], the IC50 amounted to 270 nM.

The IC50 is the concentration that gives 50% inhibition.
